The values that follow are results of earlier work, collected in patent US20230404885A1, “EPIDERMAL STEM CELL PROLIFERATION-PROMOTING AGENT” (Shiseido Company, Ltd., priority 2020, published 2023).

The structures appear in SMILES notation.

Series [1] has as its target T1, heparanase (Homo sapiens, UniProt Q9Y251).
T1 sequence (Q9Y251 36-543): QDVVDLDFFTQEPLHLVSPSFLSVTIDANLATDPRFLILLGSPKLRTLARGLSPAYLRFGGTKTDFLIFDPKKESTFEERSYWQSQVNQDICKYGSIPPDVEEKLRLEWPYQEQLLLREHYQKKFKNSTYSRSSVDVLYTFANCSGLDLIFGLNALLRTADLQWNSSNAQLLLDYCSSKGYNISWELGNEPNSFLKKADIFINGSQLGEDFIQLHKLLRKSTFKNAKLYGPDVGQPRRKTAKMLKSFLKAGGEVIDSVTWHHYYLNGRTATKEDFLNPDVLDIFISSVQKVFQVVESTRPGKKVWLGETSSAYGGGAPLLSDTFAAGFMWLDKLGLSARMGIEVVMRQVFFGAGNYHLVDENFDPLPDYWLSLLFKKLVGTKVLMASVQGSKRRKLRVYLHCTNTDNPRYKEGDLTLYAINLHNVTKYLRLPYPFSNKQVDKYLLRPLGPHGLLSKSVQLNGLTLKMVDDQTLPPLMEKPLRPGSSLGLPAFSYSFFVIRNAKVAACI
As to conditions: known, see JP 2014-111640.

Series [2] concerns the target T2, MMP-2 (Homo sapiens, UniProt P08253).
T2 sequence (P08253 110-660): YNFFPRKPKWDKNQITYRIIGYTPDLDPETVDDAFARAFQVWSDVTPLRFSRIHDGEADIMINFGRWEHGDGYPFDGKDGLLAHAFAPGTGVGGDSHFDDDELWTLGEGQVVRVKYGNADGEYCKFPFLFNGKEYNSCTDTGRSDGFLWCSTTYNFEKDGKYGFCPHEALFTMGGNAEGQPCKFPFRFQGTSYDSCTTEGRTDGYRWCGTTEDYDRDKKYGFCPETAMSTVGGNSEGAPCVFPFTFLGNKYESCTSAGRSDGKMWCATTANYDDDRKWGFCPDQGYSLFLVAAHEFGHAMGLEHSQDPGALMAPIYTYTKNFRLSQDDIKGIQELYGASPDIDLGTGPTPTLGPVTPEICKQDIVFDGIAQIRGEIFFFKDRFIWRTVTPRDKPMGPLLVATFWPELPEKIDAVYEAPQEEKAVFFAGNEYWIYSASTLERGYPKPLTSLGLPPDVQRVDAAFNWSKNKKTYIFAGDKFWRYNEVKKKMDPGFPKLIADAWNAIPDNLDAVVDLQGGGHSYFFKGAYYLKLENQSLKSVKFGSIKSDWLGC
To be noted: known.

In series [3] the target is T3, MMP-1 (Homo sapiens, UniProt P03956).
T3 sequence (P03956 100-469): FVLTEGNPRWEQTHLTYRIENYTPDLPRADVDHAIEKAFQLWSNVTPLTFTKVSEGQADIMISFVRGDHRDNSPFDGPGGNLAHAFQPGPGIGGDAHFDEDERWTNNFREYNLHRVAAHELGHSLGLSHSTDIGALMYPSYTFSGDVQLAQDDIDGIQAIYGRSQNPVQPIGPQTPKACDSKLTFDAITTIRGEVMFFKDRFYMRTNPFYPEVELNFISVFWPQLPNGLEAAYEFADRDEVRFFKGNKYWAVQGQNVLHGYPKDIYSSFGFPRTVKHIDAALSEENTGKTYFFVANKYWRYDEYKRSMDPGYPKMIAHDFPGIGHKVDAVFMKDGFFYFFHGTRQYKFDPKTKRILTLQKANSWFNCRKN
As to conditions: known.

In series [4] the target is MMP-9 (Homo sapiens, UniProt P14780). To be noted: known.
Sequence of MMP-9 (P14780 94-707): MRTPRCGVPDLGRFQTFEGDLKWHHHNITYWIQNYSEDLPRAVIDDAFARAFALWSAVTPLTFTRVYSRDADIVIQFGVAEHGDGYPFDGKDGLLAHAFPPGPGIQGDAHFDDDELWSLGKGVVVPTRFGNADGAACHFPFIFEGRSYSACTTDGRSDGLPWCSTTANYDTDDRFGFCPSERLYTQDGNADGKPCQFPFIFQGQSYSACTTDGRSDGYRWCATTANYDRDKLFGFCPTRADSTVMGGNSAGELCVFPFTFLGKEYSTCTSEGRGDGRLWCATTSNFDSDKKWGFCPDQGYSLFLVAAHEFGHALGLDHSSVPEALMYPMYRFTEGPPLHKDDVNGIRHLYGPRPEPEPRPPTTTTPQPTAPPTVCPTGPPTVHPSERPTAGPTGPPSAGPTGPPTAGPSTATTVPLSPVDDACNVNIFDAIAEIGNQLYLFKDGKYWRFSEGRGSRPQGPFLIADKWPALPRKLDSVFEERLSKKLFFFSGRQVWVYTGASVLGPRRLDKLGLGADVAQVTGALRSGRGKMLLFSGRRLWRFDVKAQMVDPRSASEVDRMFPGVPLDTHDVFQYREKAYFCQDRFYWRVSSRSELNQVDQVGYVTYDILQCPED

For the compound `O=C1NCCN1CCO` [S173, 1-(2-hydroxyethyl)-2-imidazolidinone], the heparanase activity inhibition entry in series [1] is on record as “inhibitors of the heparanase activity”. Further, the “effect on activity of MMP-2” value in series [2] is recorded as “does not affect”. Moreover, the “effect on activity of MMP-1” value in series [3] is on record as “does not affect”. Further, the MMP-9 inhibition entry in series [4] is recorded as “inhibits”.
